Data reported in patent publication US10428044B2, “3-amino-1,5,6,7-tetrahydro-4H-indol-4-ones” (Bayer Pharma Aktiengesellschaft, priority 2014, dated 2019).
pIC50: −log10 of the molar value.

Target: (recombinant) catalytic domain of human Bub1 (amino acids 704-1085) (Homo sapiens (Human), UniProt O43683)
Experiment: Bub1 kinase assay (TR-FRET)
Assay type: biochemical
Conditions: ATP 10 μM final, peptide substrate 1 μM final, 60 min at 22° C., read-out: Biological Assay: Bub1 kinase assay median IC50
Procedure, shortened: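 Compounds were serially diluted 1:3.4 from 2 mM DMSO stocks and incubated with the enzyme reaction for 60 min at 22° C. The reaction was stopped with EDTA, and biotinylated peptide phosphorylation was read by TR-FRET using Eu anti-mouse IgG, anti-phosphoserine antibody and streptavidin-XL665. IC50 was fitted by 4-parameter logistic to inhibition normalized to no-inhibitor and no-enzyme controls.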

Sequence of (recombinant) catalytic domain of human Bub1 (amino acids 704-1085) (O43683 704-1085): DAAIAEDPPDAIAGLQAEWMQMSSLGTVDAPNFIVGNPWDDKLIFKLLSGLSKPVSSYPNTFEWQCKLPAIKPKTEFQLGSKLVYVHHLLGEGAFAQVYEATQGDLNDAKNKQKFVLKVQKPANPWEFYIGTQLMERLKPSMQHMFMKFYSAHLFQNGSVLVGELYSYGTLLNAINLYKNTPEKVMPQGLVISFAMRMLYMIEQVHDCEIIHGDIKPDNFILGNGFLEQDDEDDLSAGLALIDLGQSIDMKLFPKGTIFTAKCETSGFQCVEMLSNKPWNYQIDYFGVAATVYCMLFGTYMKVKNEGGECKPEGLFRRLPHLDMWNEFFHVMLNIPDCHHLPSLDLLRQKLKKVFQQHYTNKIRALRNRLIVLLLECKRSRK

Row | Compound | pIC50
1 | CC1(C)CC(=O)c2c([nH]c(-c3ccnc(N4CCC4)c3)c2Nc2ccccc2)C1 [Example 360, 2-[2-(azetidin-1-yl)pyridin-4-yl]-6,6-dimethyl-3-(phenylamino)-1,5,6,7-tetrahydro-4H-indol-4-one] | 4.90
2 | Cn1nccc1COCC(=O)Nc1cc(-c2[nH]c3c(c2Nc2ccccc2)C(=O)CCC3)ccn1 [Example 351, 2-[(1-methyl-1H-pyrazol-5-yl)methoxy]-N-{4-[4-oxo-3-(phenylamino)-4,5,6,7-tetrahydro-1H-indol-2-yl]pyridin-2-yl}acetamide] | 8.21
3 | CC1(C)CC1C(=O)Nc1cc(-c2[nH]c3c(c2Nc2ccccc2)C(=O)CCC3)ccn1 (stereo not shown) [Example 232, 2,2-dimethyl-N-{4-[4-oxo-3-(phenylamino)-4,5,6,7-tetrahydro-1H-indol-2-yl]pyridin-2-yl}cyclopropanecarboxamide] | 7.46
4 | CC1(C)CC(=O)c2c([nH]c(-c3ccncc3OCC3CC3)c2Nc2ccccc2)C1 [Example 411, 2-[3-(cyclopropylmethoxy)pyridin-4-yl]-6,6-dimethyl-3-(phenylamino)-1,5,6,7-tetrahydro-4H-indol-4-one] | 8.16
5 | CSCCNC(=O)Nc1cc(-c2[nH]c3c(c2Nc2ccccc2)C(=O)CCC3)ccn1 [Example 389, 1-[2-(methylsulfanyl)ethyl]-3-{4-[4-oxo-3-(phenylamino)-4,5,6,7-tetrahydro-1H-indol-2-yl]pyridin-2-yl}urea] | 7.41
6 | O=C1CCCc2[nH]c(-c3ccnc(F)c3)c(Nc3ccccc3)c21 [Example 44, 2-(2-fluoropyridin-4-yl)-3-(phenylamino)-1,5,6,7-tetrahydro-4H-indol-4-one] | 7.77
7 | Cc1ncsc1COCC(=O)Nc1cc(-c2[nH]c3c(c2Nc2ccccc2)C(=O)CCC3)ccn1 [Example 496, 2-[(4-methyl-1,3-thiazol-5-yl)methoxy]-N-{4-[4-oxo-3-(phenylamino)-4,5,6,7-tetrahydro-1H-indol-2-yl]pyridin-2-yl}acetamide] | 8.19
8 | CC(C)C1CC(=O)c2c([nH]c(-c3ccnc(NC(=O)C4CC4)c3)c2Nc2ccc(F)c(F)c2)C1 (stereo not shown) [Example 324, N-{4-[3-[(3,4-difluorophenyl)amino]-4-oxo-6-(propan-2-yl)-4,5,6,7-tetrahydro-1H-indol-2-yl]pyridin-2-yl}cyclopropanecarboxamide] | 7.58
9 | O=C(Nc1cc(-c2[nH]c3c(c2Nc2ccccc2)C(=O)CCC3)ccn1)c1cnco1 [Example 282, N-{4-[4-oxo-3-(phenylamino)-4,5,6,7-tetrahydro-1H-indol-2-yl]pyridin-2-yl}-1,3-oxazole-5-carboxamide] | 8.01
10 | O=C1CCCc2[nH]c(-c3ccnc(NC(=O)C4CNC4)c3)c(Nc3ccccc3)c21 [Example 296, N-{4-[4-oxo-3-(phenylamino)-4,5,6,7-tetrahydro-1H-indol-2-yl]pyridin-2-yl}azetidine-3-carboxamide] | 5.46
11 | CC1(C)CC(=O)c2c([nH]c(-c3ccncc3)c2Nc2ccc(Cl)cc2)C1 [Example 10, 3-[(4-chlorophenyl)amino]-6,6-dimethyl-2-(pyridin-4-yl)-1,5,6,7-tetrahydro-4H-indol-4-one] | 7.90
12 | CC(C)NC(=O)Nc1cc(-c2[nH]c3c(c2Nc2ccccc2)C(=O)CCC3)ccn1 [Example 378, 1-{4-[4-oxo-3-(phenylamino)-4,5,6,7-tetrahydro-1H-indol-2-yl]pyridin-2-yl}-3-propan-2-ylurea] | 7.19
13 | O=C1CCCc2[nH]c(-c3ccnc(NC(=O)C4CC4)c3)c(Nc3ccc(F)cc3)c21 [Example 314, N-(4-{3-[(4-fluorophenyl)amino]-4-oxo-4,5,6,7-tetrahydro-1H-indol-2-yl}pyridin-2-yl)cyclopropanecarboxamide] | 7.32
14 | CCCOCC(=O)Nc1cc(-c2[nH]c3c(c2Nc2ccccc2)C(=O)CCC3)ccn1 [Example 330, N-{4-[4-oxo-3-(phenylamino)-4,5,6,7-tetrahydro-1H-indol-2-yl]pyridin-2-yl}-2-propoxyacetamide] | 8.11
15 | CC(=O)Nc1cc(-c2[nH]c3c(c2Nc2ccccc2)C(=O)CC(C)(C)C3)ncn1 [Example 357, N-{6-[6,6-dimethyl-4-oxo-3-(phenylamino)-4,5,6,7-tetrahydro-1H-indol-2-yl]pyrimidin-4-yl}acetamide] | 5.51
16 | CC1(C)CC(=O)c2c([nH]c(-c3ccnc(F)c3)c2Nc2ccccc2)C1 [Example 213, 2-(2-fluoropyridin-4-yl)-6,6-dimethyl-3-(phenylamino)-1,5,6,7-tetrahydro-4H-indol-4-one] | 7.91
17 | C[C@@H](C(=O)Nc1cc(-c2[nH]c3c(c2Nc2ccccc2)C(=O)CCC3)ccn1)N(C)C(=O)OC(C)(C)C [Example 303, tert-butyl methyl[(2S)-1-oxo-1-({4-[4-oxo-3-(phenylamino)-4,5,6,7-tetrahydro-1H-indol-2-yl]pyridin-2-yl}amino)propan-2-yl]carbamate] | 5.85
18 | CC1(C)OC[C@H](CNc2cc(-c3[nH]c4c(c3Nc3ccccc3)C(=O)CCC4)ccn2)O1 [Example 370, 2-[2-({[(4S)-2,2-dimethyl-1,3-dioxolan-4-yl]methyl}amino)pyridin-4-yl]-3-(phenylamino)-1,5,6,7-tetrahydro-4H-indol-4-one] | 5.89

More lines, in order of rising pIC50, values ahead:

Row | pIC50 | Compound
19 | 4.96 | CC1(C)CC(=O)c2c([nH]c(-c3ccncc3C#N)c2Nc2cccc(F)c2)C1 [Example 198, 4-{3-[(3-fluorophenyl)amino]-6,6-dimethyl-4-oxo-4,5,6,7-tetrahydro-1H-indol-2-yl}pyridine-3-carbonitrile]
20 | 5.11 | CC1(C)CC(=O)c2c([nH]c(-c3ccnc(N4CCOCC4)c3)c2Nc2ccccc2)C1 [Example 127, 6,6-dimethyl-2-[2-(morpholin-4-yl)pyridin-4-yl]-3-(phenylamino)-1,5,6,7-tetrahydro-4H-indol-4-one]
21 | 6.32 | O=C(O)CCn1c2c(c(Nc3ccccc3)c1-c1ccncc1)C(=O)CCC2 [Example 173, 3-[4-oxo-3-(phenylamino)-2-(pyridin-4-yl)-4,5,6,7-tetrahydro-1H-indol-1-yl]propanoic acid]
22 | 6.88 | CC1(C)CC(=O)c2c([nH]c(-c3ccncc3)c2Nc2cccc(C#N)c2)C1 [Example 79, 3-{[6,6-dimethyl-4-oxo-2-(pyridin-4-yl)-4,5,6,7-tetrahydro-1H-indol-3-yl]amino}benzonitrile]
23 | 7.02 | CC1(C)CC(=O)c2c([nH]c(-c3ccncc3)c2Nc2ccccc2F)C1 [Example 60, 3-[(2-fluorophenyl)amino]-6,6-dimethyl-2-(pyridin-4-yl)-1,5,6,7-tetrahydro-4H-indol-4-one]
24 | 7.22 | N#CC1(C(=O)Nc2cc(-c3[nH]c4c(c3Nc3ccccc3)C(=O)CCC4)ccn2)CC1 [Example 246, 1-cyano-N-{4-[4-oxo-3-(phenylamino)-4,5,6,7-tetrahydro-1H-indol-2-yl]pyridin-2-yl}cyclopropanecarboxamide]
25 | 7.30 | CC1(C)CC(=O)c2c(Nc3ccccc3)c(-c3ccncc3)n(CC(F)F)c2C1 [Example 188, 1-(2,2-difluoroethyl)-6,6-dimethyl-3-(phenylamino)-2-(pyridin-4-yl)-1,5,6,7-tetrahydro-4H-indol-4-one]
26 | 7.36 | COc1cnccc1-c1[nH]c2c(c1Nc1ccccc1)C(=O)CCC2 [Example 413, 2-(3-methoxypyridin-4-yl)-3-(phenylamino)-1,5,6,7-tetrahydro-4H-indol-4-one]
27 | 7.63 | O=C1CCCc2[nH]c(-c3ccnc(NC(=O)C4CC4(F)F)c3)c(Nc3ccccc3)c21 (racemic) [Example 260, 2,2-difluoro-N-{4-[4-oxo-3-(phenylamino)-4,5,6,7-tetrahydro-1H-indol-2-yl]pyridin-2-yl}cyclopropanecarboxamide]
28 | 7.69 | CC1(C)CC(=O)c2c([nH]c(-c3ccnc(F)c3)c2Nc2cccc(F)c2)C1 [Example 24, 3-[(3-fluorophenyl)amino]-2-(2-fluoropyridin-4-yl)-6,6-dimethyl-1,5,6,7-tetrahydro-4H-indol-4-one]
29 | 7.71 | CC1(C)OC[C@@H](C(=O)Nc2cc(-c3[nH]c4c(c3Nc3ccccc3)C(=O)CCC4)ccn2)O1 [Example 460, (4S)-2,2-dimethyl-N-{4-[4-oxo-3-(phenylamino)-4,5,6,7-tetrahydro-1H-indol-2-yl]pyridin-2-yl}-1,3-dioxolane-4-carboxamide]
30 | 7.75 | O=C(Nc1cc(-c2[nH]c3c(c2Nc2ccccc2)C(=O)CCC3)ccn1)c1ccccc1 [Example 238, N-{4-[4-oxo-3-(phenylamino)-4,5,6,7-tetrahydro-1H-indol-2-yl]pyridin-2-yl}benzamide]
31 | 7.95 | CC(=O)Nc1cc(-c2[nH]c3c(c2Nc2ccc(F)cc2)C(=O)CC(C(C)C)C3)ccn1 (stereo not shown) [Example 321, N-{4-[3-[(4-fluorophenyl)amino]-4-oxo-6-(propan-2-yl)-4,5,6,7-tetrahydro-1H-indol-2-yl]pyridin-2-yl}acetamide]
32 | 8.13 | Cn1ccc(C(=O)Nc2cc(-c3[nH]c4c(c3Nc3ccccc3)C(=O)CCC4)ccn2)n1 [Example 454, 1-methyl-N-{4-[4-oxo-3-(phenylamino)-4,5,6,7-tetrahydro-1H-indol-2-yl]pyridin-2-yl}-1H-pyrazole-3-carboxamide]
33 | 8.30 | O=C1CC2(CC2)Cc2[nH]c(-c3ccnc(NC(=O)[C@H]4C[C@@H]4F)c3)c(Nc3ccccc3)c21 (relative stereo) [Example 466, rel-(R,S)-2-fluoro-N-{4-[4′-oxo-3′-(phenylamino)-1′,4′,5′,7′-tetrahydrospiro[cyclopropane-1,6′-indol]-2′-yl]pyridin-2-yl}cyclopropanecarboxamide]
34 | 8.40 | Cn1cc(NC(=O)Nc2cc(-c3[nH]c4c(c3Nc3ccccc3)C(=O)CCC4)ccn2)cn1 [Example 390, 1-(1-methyl-1H-pyrazol-4-yl)-3-{4-[4-oxo-3-(phenylamino)-4,5,6,7-tetrahydro-1H-indol-2-yl]pyridin-2-yl}urea]
